Source: patent publication US4071627A, “2-Oximino-tetrahydro-1,4-thiazin-5-one compounds and pesticidal carbamate derivatives” (priority 1976, dated 1978)

Legend:
[1] = system: bean aphid (Aphis fabae Scop.); assay: Bean Aphid Foliage Spray Test; type: in vivo; parameters: key: A: excellent control; B: partial control; C: no control; conditions: 500 ppm, 24 hours, adults and nymphs
Experimental: (§1) Suspensions of the test compounds were prepared by dissolving one gram of compound in 50 milliliters of acetone in which had been dissolved 0.1 gram (10 percent of the weight of compound) of an alkylphenoxy polyethoxyethanol surfactant, as an emulsifying or dispersing agent. The resulting solution was mixed into 150 milliliters of water to give roughly 200 milliliters of a suspension containing the compound in finely divided form. The thus-prepared stock suspension contained 0.5 percent by weight of test compound. The test concentrations in parts per million by weight employed in the tests described hereinbelow were obtained by appropriate dilutions of the stock suspension with water. The test procedures were as follows:
Adults and nymphal stages of the bean aphid (Aphis fabae Scop.) reared on potted dwarf nasturtium plants at 65°-70° F. and 50-70 percent relative humidity, constituted the test insects. For testing purposes, the number of aphids per pot was standardized to 100-150 by trimming plants containing excess aphids.
The test compounds were formulated by diluting the stock suspension with water to give a suspension containing 500 parts of test compound per million parts of final formulation.
The potted plants (one pot per compound tested) infested with 100-150 aphids, were placed on a revolving turntable and sprayed with 100-110 milliliters of test compound formulated by use of a DeVilbiss spray gun set at 40 psig. air pressure. This application, which lasted 25 seconds, was sufficient to wet the plants to run-off. As a control, 100-110 milliliters of a water-acetone-emulsifier solution containing no test compound were also sprayed on infested plants. After spraying, the pots were placed on their sides on a sheet of white standard mimeograph paper which had been previously ruled to facilitate counting. Temperature and humidity in the test room during the 24 hour holding period were 65°-70° F. and 50-70 percent, respectively. Aphids which fell onto the paper and were unable to remain standing after being uprighted were considered dead. Aphids remaining on the plants were observed closely for movement and those which were unable to move the length of the body upon stimulation by prodding were considered dead. Percent mortality was recorded for various concentration levels.
(§2) In these tests the pesticidal activity of the compounds against aphid, mite, Southern Armyworm, Mexican Bean Beetle, and house fly was rated as follows: […]

[2] = system: two-spotted mite (Tetranychus urticae Koch); assay: Mite Foliage Spray Test; type: in vivo; parameters: key: A: excellent control; B: partial control; C: no control; conditions: 500 ppm, six days, adults and nymphs
Experimental: as §1
Adults and nymphal stages of the two-spotted mite (Tetranychus urticae Koch), reared on Tengergreen bean plants at 80±5 percent relative humidity, were the test organisms. Infested leaves from a stock culture were placed on the primary leaves of two bean plants 6 to 8 inches in height, growing in a 21/2 inch clay pot. 150-200 Mites, a sufficient number for testing, transferred from the excised leaves to the fresh plants in a period of 24 hours. Following the 24 hour transfer period, the excised leaves were removed from the infested plants. The test compounds were formulated by diluting the stock suspension with water to give a suspension containing 500 parts of test compound per million parts of final formulation. The potted plants (one pot per compound) were placed on a revolving turntable and sprayed with 100-110 milliliters of test compound formulation by use of a DeVilbiss spray gun set at 40 psig. air pressure. This application, which lasted 25 seconds, was sufficient to wet the plants to run-off. As a control, 100-110 milliliters of a water solution containing acetone and emulsifier in the same concentrations as the test compound formulation, but containing no test compound, were also sprayed on infested plants. The sprayed plants were held at 80±5 percent relative humidity for six days, after which a mortality count of motile forms was made. Microscopic examination for motile forms was made on the leaves of the test plants. Any individual which was capable of locomotion upon prodding was considering living.
as §2

[3] = system: southern armyworm (Prodenia eridania, (Cram.)); assay: Southern Armyworm Leaf Spray Test; type: in vivo; parameters: key: A: excellent control; B: partial control; C: no control; conditions: 500 ppm, three days, larvae
Experimental: as §1
Larvae of the southern armyworm (Prodenia eridania, (Cram.)), reared on Tendergreen bean plants at a temperature of 80°±5° F. and a relative humidity of 50±5 percent, constituted the test insects.
The test compounds were formulated by diluting the stock suspension with water to give a suspension containing 500 parts of test compound per million parts of final formulation. Potted Tendergreen bean plants of standard height and age were placed on a revolving turntable and sprayed with 100-110 milliliters of test compound formulation by use of a DeVilbiss spray gun set at 10 psig air pressure. This application, which lasted 25 seconds, was sufficient to wet plants to run-off. As a control, 100-110 milliliters of a water-acetone-emulsifier solution containing no test compound were also sprayed on infested plants. When dry, the paired leaves were separated and each one was placed in a 9 centimeter Petri dish lined with moistened filter paper. Five randomly selected larvae were introduced into each dish and the dishes were closed. The closed dishes were labeled and held at 80°-85° F. for three days. Although the larvae cound easily consume the whole leaf within 24 hours, no more food was added. Larvae which were unable to move the length of the body, even upon stimulation by prodding, were considered dead. Percent mortality was […] for various concentration levels.
as §2

[4] = system: Mexican bean beetle (Epilachna varivestis, Muls.); assay: Mexican Bean Beetle Leaf Spray Test; type: in vivo; parameters: key: A: excellent control; B: partial control; C: no control; conditions: 500 ppm, three days, fourth instar larvae
Experimental: as §1
Fourth instar larvae of the Mexican bean beetle (Epilachna varivestis, Muls.), reared on Tendergreen bean plants at a temperature of 80°±5° F. and 50±5 percent relative humidity, were the test insects.
The test compounds were formulated by diluting the stock suspension with water to give a suspension containing 500 parts of test compound per million parts of final formation. Potted Tendergreen bean plants of standard height and age were placed on a revolving turntable and sprayed with 100-110 milliliters of test compound formulated by use of a DeVilbiss spray gun set at 10 psig air pressure. This application, which lasted 25 seconds, was sufficient to wet plants to run-off. As a control, 100-110 milliliters of a water-acetone-emulsifier solution containing no test compound were also sprayed on infested plants. When dry, the paired leaves were separated and each was placed in a 9 centimeter Petri dish lined with moistened filter paper. Five randomly selected larvae were introduced into each dish, and the dishes were closed. The closed dishes were labeled and held at a temperature of 80°±5° F. for three days. Although the larvae could easily consume the leaf within 24 to 48 hours, no more food was added. Larvae which were unable to move the length of the body, even upon stimulation, were considered dead.
as §2

[5] = system: house flies (Musca domestica, L.); assay: Fly Bait Test; type: in vivo; parameters: key: A: excellent control; B: partial control; C: no control; conditions: 500 ppm, 24 hours, adults
Experimental: as §1
Four to six day old adult house flies (Musca domestica, L.), reared according to the specifications of the Chemical Specialities Manufacturing Association (Blue Book, McNair-Dorland Co., N.Y. 1954; pages 243-244, 261) under controlled conditions of 80°±5° F. and 50±5 percent relative humidity, were the test insects. The flies were immobilized by anesthetizing with carbon dioxide and 25 immobilized individuals, males and females, were transferred to a cage consisting of a standard food strainer about 5 inches in diameter which was inverted over a wrapping-paper-covered surface. The test compounds were formulated by diluting the stock suspension with a 10 percent (by weight) sugar solution to give a suspension containing 500 parts of test compound per million parts of final formulation, by weight. Ten milliliters of the test formulation were added to a souffle cup containing a 1-inch square of an absorbent cotton pad. This bait cup was introduced and centered on the blotting paper under the food strainer prior to admitting the anesthetized flies. The caged flies were allowed to feed on the bait for 24 hours, at a temperature of 80°±5° F. and the relative humidity of 50±5 percent.
as §2

[6] = in vivo; conditions: rat, po
Experimental: Certain of these compositions were also evaluated to determine their peroral toxicity to mammals. The animal selected for this experiment was the rat.

Row | Compound | Biological Activity, Aphid [1] | Biological Activity, Mite [2] | Biological Activity, Southern Armyworm [3] | Biological Activity, Mexican Bean Beetle [4] | Biological Activity, House Fly [5] | LD50 [6] [mg/kg]
1 | CNC(=O)ON=C1SC(C)C(=O)NC1(C)C (stereo not drawn) [2-[O-(Methylcarbamoyl)oximino]-3,3,6-trimethyltetrahydro-1,4-thiazin-5-one] | A | A | B | A | A | 0.884
2 | CNC(=O)ON=C1SCC(=O)NC1C (stereo not drawn) [2-[O-(Methylcarbamoyl)oximino]-3-methyltetrahydro-1,4-thiazin-5-one] | B | A | A | A | A | 5.66
3 | CC1C(=NOC(=O)N(C)SC(Cl)(Cl)Cl)SCC(=O)N1C (stereo not drawn) [2-[O-(N-Trichloromethanesulfenyl-N-methylcarbamoyl)oximino]-3,4-dimethyltetrahydro-1,4-thiazin-5-one] | B | A | B | A | A | 3.54
